Measured values: patent publication US6914045B2, “Glycopeptide antibiotics” (Wyeth Holdings Corporation, priority 2001, dated 2005)
Converted amounts (≈) assume the structure as drawn.

Legend:
Assay in all cases: in vitro antibacterial evaluation, MIC by broth dilution
Type in all cases: cell-based
Enterococcus sp. = settings: broth dilution, 18 hours at 35° C.
Method in brief: (§1)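 Broth dilution per NCCLS standard M7-A2 in Muller-Hinton II […], with an inoculum of 5×10^5 CFU/mL and antibiotic spanning 64-0.06 μg/mL. The MIC is the lowest concentration that inhibits growth of the organism.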

Escherichia coli = system: Escherichia coli
Method in brief: as §1

Staphylococcus sp. = settings: broth dilution, 18 hours at 35° C.; for MIC Staphylococcus aureus (GC 1131): strain GC 1131
Method in brief: as §1

Streptococcus sp. = settings: broth dilution, 18 hours at 35° C.
Method in brief: as §1

MIC Enterococcus avium (GC 4558) (Enterococcus sp.; Enterococcus avium (GC 4558)): 8 µg/mL (≈ 5.55 µM)
MIC Enterococcus faecalis (ATCC 29212) (Enterococcus sp.; Enterococcus faecalis (ATCC 29212)): 8 µg/mL (≈ 5.55 µM)
MIC Enterococcus faecalis (GC 2242) (Enterococcus sp.; Enterococcus faecalis (GC 2242)): 8 µg/mL (≈ 5.55 µM)
MIC Enterococcus faecalis (GC 2691) (Enterococcus sp.; Enterococcus faecalis (GC 2691)): 8 µg/mL (≈ 5.55 µM)
MIC Enterococcus faecalis (GC 3059) (Enterococcus sp.; Enterococcus faecalis (GC 3059)): 8 µg/mL (≈ 5.55 µM)
MIC Enterococcus faecalis (GC 4552) (Enterococcus sp.; Enterococcus faecalis (GC 4552)): 8 µg/mL (≈ 5.55 µM)
MIC Enterococcus faecalis (GC 4553) (Enterococcus sp.; Enterococcus faecalis (GC 4553)): 8 µg/mL (≈ 5.55 µM)
MIC Enterococcus faecalis (GC 4554) (Enterococcus sp.; Enterococcus faecalis (GC 4554)): 8 µg/mL (≈ 5.55 µM)
MIC Enterococcus faecalis (GC 6189) (Enterococcus sp.; Enterococcus faecalis (GC 6189)): 8 µg/mL (≈ 5.55 µM)
MIC Enterococcus faecium (GC 2243) (Enterococcus sp.; Enterococcus faecium (GC 2243)): 8 µg/mL (≈ 5.55 µM)
MIC Enterococcus faecium (GC 4556) (Enterococcus sp.; Enterococcus faecium (GC 4556)): 8 µg/mL (≈ 5.55 µM)
MIC Enterococcus faecium (GC 4557) (Enterococcus sp.; Enterococcus faecium (GC 4557)): 2 µg/mL (≈ 1.39 µM)
MIC Enterococcus faecalis (ATCC 29212) (Enterococcus sp.; strain ATCC 29212): 8 µg/mL (≈ 5.55 µM)
MIC Enterococcus faecalis (GC 2242) (Enterococcus sp.; strain GC 2242): 8 µg/mL (≈ 5.55 µM)
MIC Enterococcus faecium (GC 2243) (Enterococcus sp.; strain GC 2243): 8 µg/mL (≈ 5.55 µM)
MIC Enterococcus faecalis (GC 2691) (Enterococcus sp.; strain GC 2691): 8 µg/mL (≈ 5.55 µM)
MIC Enterococcus faecalis (GC 3059) (Enterococcus sp.; strain GC 3059): 8 µg/mL (≈ 5.55 µM)
MIC Enterococcus faecalis (GC 4552) (Enterococcus sp.; strain GC 4552): 8 µg/mL (≈ 5.55 µM)
MIC Enterococcus faecalis (GC 4553) (Enterococcus sp.; strain GC 4553): 8 µg/mL (≈ 5.55 µM)
MIC Enterococcus faecalis (GC 4554) (Enterococcus sp.; strain GC 4554): 8 µg/mL (≈ 5.55 µM)
MIC Enterococcus faecium (GC 4556) (Enterococcus sp.; strain GC 4556): 8 µg/mL (≈ 5.55 µM)
MIC Enterococcus faecium (GC 4557) (Enterococcus sp.; strain GC 4557): 2 µg/mL (≈ 1.39 µM)
MIC Enterococcus avium (GC 4558) (Enterococcus sp.; strain GC 4558): 8 µg/mL (≈ 5.55 µM)
MIC Enterococcus faecalis (GC 6189) (Enterococcus sp.; strain GC 6189): 8 µg/mL (≈ 5.55 µM)
MIC Escherichia coli (ATCC 25922) (Escherichia coli; strain ATCC 25922, 18 hours at 35° C.): >64 µg/mL
MIC Escherichia coli (GC 4559) (Escherichia coli; strain GC 4559, 18 hours at 35° C.): 64 µg/mL (≈ 44.4 µM)
MIC Escherichia coli (GC 4560) (Escherichia coli; strain GC 4560, 18 hours at 35° C.): <0.5 µg/mL
MIC Staphylococcus aureus (GC 1131) (Staphylococcus sp.; inoculum 5×10^5 CFU/mL): 2 µg/mL (≈ 1.39 µM)
MIC Staphylococcus aureus (ATCC 29213) (Staphylococcus sp.; strain ATCC 29213): 2 µg/mL (≈ 1.39 µM)
MIC Staphylococcus aureus (GC 1131) (Staphylococcus sp.): 2 µg/mL (≈ 1.39 µM)
MIC Staphylococcus aureus (GC 3051) (Staphylococcus sp.; strain GC 3051): 2 µg/mL (≈ 1.39 µM)
MIC Staphylococcus aureus (GC 3053) (Staphylococcus sp.; strain GC 3053): 4 µg/mL (≈ 2.78 µM)
MIC Staphylococcus aureus (GC 4541) (Staphylococcus sp.; strain GC 4541): 2 µg/mL (≈ 1.39 µM)
MIC Staphylococcus aureus (GC 4542) (Staphylococcus sp.; strain GC 4542): 2 µg/mL (≈ 1.39 µM)
MIC Staphylococcus aureus-SMITH (GC 4543) (Staphylococcus sp.; strain GC 4543): 2 µg/mL (≈ 1.39 µM)
MIC Staphylococcus aureus (GC 4544) (Staphylococcus sp.; strain GC 4544): 2 µg/mL (≈ 1.39 µM)
MIC Staphylococcus aureus (GC 4545) (Staphylococcus sp.; strain GC 4545): 2 µg/mL (≈ 1.39 µM)
MIC Coagulase Negative Staphylococcus (GC 4547) (Staphylococcus sp.; strain GC 4547): 1 µg/mL (≈ 0.694 µM)
MIC Coagulase Negative Staphylococcus (GC 4548) (Staphylococcus sp.; strain GC 4548): 1 µg/mL (≈ 0.694 µM)
MIC Coagulase Negative Staphylococcus (GC 4549) (Staphylococcus sp.; strain GC 4549): 1 µg/mL (≈ 0.694 µM)
MIC Coagulase Negative Staphylococcus (GC 4551) (Staphylococcus sp.; strain GC 4551): 1 µg/mL (≈ 0.694 µM)
MIC Coagulase Negative Staphylococcus (GC 6257) (Staphylococcus sp.; strain GC 6257): 1 µg/mL (≈ 0.694 µM)
MIC Staphylococcus aureus-SMITH (GC 4543) (Staphylococcus sp.; strain SMITH GC 4543): 2 µg/mL (≈ 1.39 µM)
MIC Streptococcus agalactiae (GC 4564) (Streptococcus sp.; Streptococcus agalactiae (GC 4564)): 1 µg/mL (≈ 0.694 µM)
MIC Streptococcus pneumoniae (ATCC 6301) (Streptococcus sp.; Streptococcus pneumoniae (ATCC 6301)): <0.5 µg/mL
MIC Streptococcus pneumoniae (GC 1894) (Streptococcus sp.; Streptococcus pneumoniae (GC 1894)): <0.5 µg/mL
MIC Streptococcus pneumoniae (GC 4565) (Streptococcus sp.; Streptococcus pneumoniae (GC 4565)): 2 µg/mL (≈ 1.39 µM)
MIC Streptococcus pyogenes (GC 4563) (Streptococcus sp.; Streptococcus pyogenes (GC 4563)): <0.5 µg/mL
MIC Streptococcus pneumoniae (ATCC 6301) (Streptococcus sp.; strain ATCC 6301): <0.5 µg/mL
MIC Streptococcus pneumoniae (GC 1894) (Streptococcus sp.; strain GC 1894): <0.5 µg/mL
MIC Streptococcus pyogenes (GC 4563) (Streptococcus sp.; strain GC 4563): <0.5 µg/mL
MIC Streptococcus agalactiae (GC 4564) (Streptococcus sp.; strain GC 4564): 1 µg/mL (≈ 0.694 µM)
MIC Streptococcus pneumoniae (GC 4565) (Streptococcus sp.; strain GC 4565): 2 µg/mL (≈ 1.39 µM)
Structure (SMILES): CC(c1ccccc1)C1NC(=O)CNC(=O)C(CO)NC(=O)C(C(O)C2CNC(=N)N2C2OC(CO)C(O)C(O)C2O)NC(=O)C(C(O)C2CNC(=N)N2)NC(=O)C(Cc2ccc(OC3OC(CO)C(OC4OC5COC(c6ccc7c(c6)OCCO7)OC5C(O)C4O)C(O)C3O)cc2)NC1=O (stereo not drawn) [Example 149]
MIC Staphylococcus haemolyticus (GC 4546) (Staphylococcus sp.; strain GC 4546): 1 µg/mL (≈ 0.694 µM)
